Entries after “also recorded” stand apart in the source; their conditions may differ. Values belong to the molecule of their own block, whether it stands above or below them. [ ]: non-standard residue; d: D form. The star is where a group is joined. FITC = O=C1OC2(c3ccc(O)cc3Oc3cc(O)ccc32)c2ccc(NC(=S)*)cc21; Dap = NC[C@H](N)C(=O)O
Key:
GCN5 = GCN5 (Homo sapiens, UniProt Q92831); experiment: Acetyltransferase assay with acetyl-CoA analogs and H3 (1-20) peptide (MS); settings: GCN5 with H3 (1-20) peptide, mass spectrometric analysis
MYST2 = MYST2 (Homo sapiens, UniProt O95251); experiment: Acetyltransferase assay with acetyl-CoA analogs and H4 (1-20) peptide (MS); settings: MYST2 with H4 (1-20) peptide, mass spectrometric analysis
TIP60 = TIP60 (Homo sapiens, UniProt Q92993); experiment: as above; settings: TIP60 with H4 (1-20) peptide, mass spectrometric analysis
DLD-1 cells [1] = experiment: Cell penetration assay of FITC-labelled Axin analogues (confocal imaging); format: cell-based; settings: for cellular uptake by confocal fluorescence microscopy (in words): 10 μM; for Mean Intensity Ratio (cell penetration): 10 μM FITC-labelled peptide, 12 h, intracellular intensity of peptide 51 normalized as 1
DLD-1 cells [2] = settings: then 10 μM peptide 4 h; for Mean Intensity Ratio, no pathway blocker: DLD-1 cells pretreated with solvent vehicle only, normalized as 1; for Mean Intensity Ratio, Chlorpromazine / Mean Intensity Ratio, Cytochalasin D / Mean Intensity Ratio, Nystatin / Mean Intensity Ratio, NaClO3: DLD-1 cells, ratio to no blocker; for Mean Intensity Ratio, Chlorpromazine: 1 h 5 μg/mL chlorpromazine (clathrin-dependent endocytosis); for Mean Intensity Ratio, Cytochalasin D: 1 h 10 μg/mL cytochalasin D (actin polymerization); for Mean Intensity Ratio, Nystatin: 1 h 25 μg/mL nystatin (caveolin-mediated endocytosis); for Mean Intensity Ratio, NaClO3: 1 h 80 mM NaClO3 (proteoglycan synthesis)
Experimental: Images were analyzed with NIH ImageJ software. […] Particles in the extracellular matrix that the “analyze particle” function selected were manually deselected and removed from the data set (FIG. 58B).
After this, the FITC-labelled peptide analogues were added at a final concentration of 10 μM, and the mixture was incubated at 37° C./5% CO2 for 4 h. […] After another round of washing, cells were imaged in the buffer as aforementioned. Subsequent CellTiter-Glo viability measurements were also performed right after confocal imaging.

DLD-1 cells [3] = settings: 10 μM, 12 h
[4] = Measurement of FTDR reaction kinetics; format: physicochemical; settings: DMF/Tris buffer (70/30), pH 8.5, 37° C.; 40, 80, 160 mM; average of three experiments
Experimental: Measurement of Reaction Kinetics: Reaction kinetics were evaluated similarly to reported procedures (Addy P S et al., 2017, J. Am. Chem. Soc., 139:11670-11673; Sundhoro M et al., 2017, Angew. Chem. Int. Ed. Engl., 56:12117-12121.). Stock solutions of substrate (3) and nucleophiles were prepared in DMF, while TCEP stock (pH 7.4) was dissolved in H2O. Equal concentrations (40 mM, 80 mM, or 160 mM) of the substrate and the nucleophile (3,4,5-trimethoxybenzenethiol or 2,4,6-trimethoxybenzenethiol) were mixed in 40 μL of DMF/Tris buffer (70/30). Over excess amount of TCEP (100 mM, 200 mM, or 400 mM) was added, and the final pH of the mixture was adjusted to 8.5 to initiate the reaction at 37° C. Time dependent measurements were carried out by taking 2 μL of the reaction mixture at indicated time points (30 min, 60 min, 90 min, 120 min, 150 min, 180 min), and mixing it with 18 μL 0.5% TFA/ACN to quench the reaction. The samples were eventually analyzed by LC/MS and the concentrations of product and reactant were determined by comparing peak area ratios with those of the standard curves. […]; t: reaction time; [X]t: concentration of either reactant at time t).

in vitro = settings: human, pH 8.5
[5] = Hydrolysis of acetyl CoA and fluoroacetyl CoA (DTNB); format: physicochemical; settings: 10 μM, 100 mM Tris buffer (pH 7.2)
Experimental: Hydrolysis of Acetyl CoA and Fluoroacetyl CoA: The hydrolysis rate of acetyl-CoA and fluoroacetyl CoA were measured in a similar manner to reported procedures (Weeks A M et al., 2010, Biochemistry, 49:9269-9279; Wagner G R et al., 2017, Cell Metab., 25:823-837). Briefly, 10 μM of the acetyl or fluoroacetyl CoA was incubated in 100 mM Tris buffer mixed with 0.5 mM DTNB, pH 7.2. The increase in the solution's absorbance at 412 nm was recorded, as a result of the reaction between DTNB and the free thiol in the released CoA hydrolysis product. A CoA standard curve was generated by measuring the absorbance of serially diluted CoA stock (200 μM) in the same assay buffer.

[6] = Bioorthogonality of the fluorine-thiol displacement reaction: incubation with glutathione or cysteine (1H NMR); format: physicochemical; settings: 25 mM each, pH 8.5, 37° C., 24 h
Experimental: Bioorthogonality of the Fluorine-Thiol Displacement Reaction (FIG. 30) The common substrate 2-fluoro-N-phenethylacetamide (compound (3)) was dissolved in MeOD as a 10× stock solution (250 mM). Sixty microliter of the stock was mixed with another 60 μL of either the reduced glutathione or cysteine 10× stock solution (250 mM in D2O). The mixture was added with additional deuterated solvents (1:1 mix of deuterated sodium phosphate buffer and MeOD) to make a final volume of 600 μL (pH adjusted to 8.5). The resulting solution was incubated at 37° C. water bath for 24 h, and then analyzed by ^1H NMR spectroscopy.

[7] = Stability and reactivity of model substrates and probes in cell lysates; settings: human, pH 8.5
[8] = target: T1, beta-catenin protein (Abcam, ab63175) (UniProt P35222 1-781, limits assumed); experiment: ELISA; beta-catenin coated on plate
T1 construct: Bought protein coated on the ELISA plate; also called β-catenin; target protein β-catenin
T1 sequence (looked up): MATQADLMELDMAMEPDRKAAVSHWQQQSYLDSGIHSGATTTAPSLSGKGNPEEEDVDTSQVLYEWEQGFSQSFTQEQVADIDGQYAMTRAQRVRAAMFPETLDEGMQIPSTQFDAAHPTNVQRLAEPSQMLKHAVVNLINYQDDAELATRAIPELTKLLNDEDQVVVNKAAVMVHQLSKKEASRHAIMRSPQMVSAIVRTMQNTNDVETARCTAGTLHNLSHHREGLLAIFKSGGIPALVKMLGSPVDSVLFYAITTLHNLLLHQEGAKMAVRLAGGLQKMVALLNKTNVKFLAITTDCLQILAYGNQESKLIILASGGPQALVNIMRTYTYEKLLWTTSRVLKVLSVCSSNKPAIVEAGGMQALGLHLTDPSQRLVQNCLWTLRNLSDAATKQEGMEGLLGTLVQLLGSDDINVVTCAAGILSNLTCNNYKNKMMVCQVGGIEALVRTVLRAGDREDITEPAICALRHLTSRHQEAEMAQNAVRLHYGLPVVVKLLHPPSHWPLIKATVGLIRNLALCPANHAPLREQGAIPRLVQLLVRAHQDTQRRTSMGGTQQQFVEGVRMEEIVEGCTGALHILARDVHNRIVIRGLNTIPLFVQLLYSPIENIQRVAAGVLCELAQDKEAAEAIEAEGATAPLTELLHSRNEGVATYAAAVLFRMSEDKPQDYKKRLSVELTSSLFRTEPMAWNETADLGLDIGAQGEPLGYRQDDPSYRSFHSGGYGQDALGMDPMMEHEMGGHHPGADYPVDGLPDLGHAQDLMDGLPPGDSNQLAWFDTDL

TIP60, sequence (Q92993 whole entry): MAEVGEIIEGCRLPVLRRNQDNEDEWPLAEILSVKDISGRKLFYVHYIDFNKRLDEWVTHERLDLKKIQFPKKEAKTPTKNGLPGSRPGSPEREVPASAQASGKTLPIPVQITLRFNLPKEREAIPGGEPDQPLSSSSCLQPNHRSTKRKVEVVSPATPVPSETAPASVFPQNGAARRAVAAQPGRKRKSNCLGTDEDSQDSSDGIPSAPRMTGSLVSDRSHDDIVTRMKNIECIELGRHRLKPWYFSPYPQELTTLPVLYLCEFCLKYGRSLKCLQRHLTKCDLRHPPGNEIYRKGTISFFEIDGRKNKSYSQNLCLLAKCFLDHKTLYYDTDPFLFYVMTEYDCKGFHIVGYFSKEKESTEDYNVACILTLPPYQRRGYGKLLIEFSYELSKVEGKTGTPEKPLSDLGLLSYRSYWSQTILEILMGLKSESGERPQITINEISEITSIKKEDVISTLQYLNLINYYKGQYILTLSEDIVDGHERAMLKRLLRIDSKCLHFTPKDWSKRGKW
MYST2, sequence (O95251 whole entry): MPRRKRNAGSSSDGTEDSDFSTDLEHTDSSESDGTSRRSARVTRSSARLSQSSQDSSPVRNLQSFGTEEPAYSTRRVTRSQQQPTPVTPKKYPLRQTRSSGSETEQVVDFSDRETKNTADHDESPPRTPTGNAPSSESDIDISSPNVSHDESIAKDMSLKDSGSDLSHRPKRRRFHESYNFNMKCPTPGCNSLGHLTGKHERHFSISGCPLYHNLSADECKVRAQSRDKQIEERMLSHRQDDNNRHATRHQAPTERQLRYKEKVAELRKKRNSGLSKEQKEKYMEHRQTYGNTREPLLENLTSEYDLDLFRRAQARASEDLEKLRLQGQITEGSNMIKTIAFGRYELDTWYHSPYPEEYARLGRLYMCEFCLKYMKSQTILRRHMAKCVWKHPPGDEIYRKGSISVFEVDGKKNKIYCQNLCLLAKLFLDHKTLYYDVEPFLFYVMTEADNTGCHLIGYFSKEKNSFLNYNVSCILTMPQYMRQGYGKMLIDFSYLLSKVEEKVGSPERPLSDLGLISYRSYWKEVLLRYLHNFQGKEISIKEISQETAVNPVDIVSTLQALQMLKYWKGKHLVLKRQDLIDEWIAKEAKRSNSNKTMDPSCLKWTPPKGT
GCN5, sequence (Q92831 492-658 limits assumed): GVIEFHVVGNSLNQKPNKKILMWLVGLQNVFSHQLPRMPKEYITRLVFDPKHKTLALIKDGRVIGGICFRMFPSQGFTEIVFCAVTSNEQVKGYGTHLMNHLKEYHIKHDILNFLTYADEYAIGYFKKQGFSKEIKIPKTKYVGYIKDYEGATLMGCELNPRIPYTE

labelling of histone peptide substrate by acetyltransferase (GCN5): failed to incorporate
labelling of histone peptide substrate by acetyltransferase (MYST2): failed to incorporate
labelling of histone peptide substrate by acetyltransferase (TIP60): failed to incorporate
Molecule: C#CCCC(=O)SCCNC(=O)CCNC(=O)[C@H](O)C(C)(C)COP(=O)(O)OP(=O)(O)OCC1OC(n2cnc3c(N)ncnc32)C(O)C1OP(=O)(O)O (stereo partly shown) [Peptide 4-PY-CoA, 4-pentynoyl CoA]

Molecule: CC[C@H](C)[C@@H]1NC(=O)[C@@H](NC(=O)[C@H](CCC(N)=O)NC(=O)[C@@H]2CCCN2C(=O)[C@H](Cc2c[nH]c3ccccc23)NC(=O)[C@H](CCCNC(=N)N)NC(=O)COCCOCCNC(=S)Nc2ccc3c(c2)C(=O)OC32c3ccc(O)cc3Oc3cc(O)ccc32)CNC(=O)CSCc2cccc(c2)CSCC(=O)NC[C@H](C(=O)N[C@@H](Cc2c[nH]cn2)C(=O)N[C@H](C(=O)N[C@@H](CCCNC(=N)N)C(=O)N[C@@H](CCCNC(=N)N)C(=O)N[C@H](C(=O)N[C@@H](Cc2c[nH]c3ccccc23)C(=O)N[C@@H](CCCNC(=N)N)C(N)=O)C(C)C)C(C)C)NC(=O)[C@H](CC(=O)O)NC(=O)[C@H](CC(C)C)NC1=O [Peptide 50]
cellular uptake by confocal fluorescence microscopy (in words) (DLD-1 cells [1]): significant cellular uptake
Mean Intensity Ratio (cell penetration) (DLD-1 cells [1]): 5.05±0.14
Mean Intensity Ratio, no pathway blocker (DLD-1 cells [2]): 1.00 ± 0.02
Mean Intensity Ratio, Chlorpromazine (DLD-1 cells [2]): 0.16 ± 0.01
Mean Intensity Ratio, Cytochalasin D (DLD-1 cells [2]): 0.99 ± 0.02
Mean Intensity Ratio, Nystatin (DLD-1 cells [2]): 0.17 ± 0.01
Mean Intensity Ratio, NaClO3 (DLD-1 cells [2]): 0.20 ± 0.01
effect on cell viability (DLD-1 cells [3]): did not affect the viability

Molecule: CC[C@H](C)[C@@H]1NC(=O)[C@@H](NC(=O)[C@H](CCC(N)=O)NC(=O)[C@@H]2CCCN2C(=O)[C@H](Cc2c[nH]c3ccccc23)NC(=O)[C@H](CCCNC(=N)N)NC(=O)COCCOCCNC(=S)Nc2ccc3c(c2)C(=O)OC32c3ccc(O)cc3Oc3cc(O)ccc32)CNC(=O)CSCc2cccc(c2)CSCC(=O)NC[C@@H](C(=O)N[C@@H](Cc2c[nH]cn2)C(=O)N[C@H](C(=O)N[C@@H](CCCNC(=N)N)C(=O)N[C@@H](CCCNC(=N)N)C(=O)N[C@H](C(=O)N[C@@H](Cc2c[nH]c3ccccc23)C(=O)N[C@@H](CCCNC(=N)N)C(N)=O)C(C)C)C(C)C)NC(=O)[C@H](CC(=O)O)NC(=O)[C@H](CC(C)C)NC1=O [Peptide 48]
cellular uptake by confocal fluorescence microscopy (in words) (DLD-1 cells [1]): significant cellular uptake
Mean Intensity Ratio (cell penetration) (DLD-1 cells [1]): 4.86±0.15
Mean Intensity Ratio, no pathway blocker (DLD-1 cells [2]): 1.00 ± 0.04
Mean Intensity Ratio, Chlorpromazine (DLD-1 cells [2]): 0.13 ± 0.01
Mean Intensity Ratio, Cytochalasin D (DLD-1 cells [2]): 0.10 ± 0.01
Mean Intensity Ratio, Nystatin (DLD-1 cells [2]): 1.16 ± 0.03
Mean Intensity Ratio, NaClO3 (DLD-1 cells [2]): 0.12 ± 0.01
effect on cell viability (DLD-1 cells [3]): did not affect the viability

recovery at 14 h, 1 mM (in vitro): 61.8%
Molecule: COc1cc(OC)c(S)c(OC)c1 [Peptide 13]
second order rate constant of FTDR reaction with (3) (2-fluoro-N-phenethylacetamide) [4]: (1.03±0.06)×10^−3 M^−1 S^−1

Molecule: COc1cc(S)cc(OC)c1OC [Peptide 12]
second order rate constant of FTDR reaction with (3) (2-fluoro-N-phenethylacetamide) [4]: (0.37±0.06)×10^−3 M^−1 S^−1

Molecule: CC(=O)SCCNC(=O)CCNC(=O)[C@H](O)C(C)(C)COP(=O)(O)OP(=O)(O)OC[C@H]1O[C@@H](n2cnc3c(N)ncnc32)[C@H](O)[C@@H]1OP(=O)(O)O [Ac-CoA, acetyl-CoA]
pseudo-first-order rate constant of hydrolysis [5]: 0.0002 s⁻¹
labelling of histone peptide substrate by acetyltransferase (GCN5): successful acetyl or acetyl analog labelling
labelling of histone peptide substrate by acetyltransferase (MYST2): successful acetyl or acetyl analog labelling
labelling of histone peptide substrate by acetyltransferase (TIP60): successful acetyl or acetyl analog labelling

Molecule: O=C(CF)NCCc1ccccc1 [Peptide 3]
reactivity with cysteine [6]: no reaction was observed; also recorded: stable
reactivity with glutathione [6]: no reaction was observed; also recorded: stable
recovery at 14 h, 1 mM [7]: 100%

Molecule: CC(C)(COP(=O)(O)OP(=O)(O)OCC1OC(n2cnc3c(N)ncnc32)C(O)C1OP(=O)(O)O)[C@@H](O)C(=O)NCCC(=O)NCCSC(=O)CF (stereo partly shown) [F-Ac-CoA, fluoroacetyl-CoA]
pseudo-first-order rate constant of hydrolysis [5]: 0.0075 s⁻¹
labelling of histone peptide substrate by acetyltransferase (GCN5): successful acetyl or acetyl analog labelling
labelling of histone peptide substrate by acetyltransferase (MYST2): successful acetyl or acetyl analog labelling
labelling of histone peptide substrate by acetyltransferase (TIP60): successful acetyl or acetyl analog labelling

EC50 [8]: ~300 nM
B1: FITC labelled fluoroacetamide containing L,L substrate (47), unstapled Axin-derived peptide analogue (peptide)
peptide: {FITC}-RWPQ[Dap](fluoroacetyl)ILD[Dap](fluoroacetyl)HVRRVWR-NH2
notes: also called peptide (47); unstapled peptide (47)

From US20230138393A1, “LINKING AMINO ACID SEQUENCES, MANUFACTURING METHOD THEREOF, AND USE THEREOF” (priority 2020, published 2023)
